# Measured values taken from publication PMC6792352, “Limited Chemical Structural Diversity Found to Modulate Thyroid Hormone Receptor in the Tox21 Chemical Library” (Environmental Health Perspectives, 2019).
# Counter-ions that a name gives are not always drawn.
# Experiment: in vitro
# Conditions: rat, gh3-tre-luc cells, AC50 (uM) modified / 1000
row,Structure (SMILES),CC50 at 24 h
1,CCCCCCCCCCCCCC(=O)O [Tetradecanoic acid],> 90 µM
2,CCCCCCCC/C=C\CCCCCCCC(=O)OC [Methyl (9Z)-octadec-9-enoate],> 90 µM
3,Cc1c(C(N)=O)cc([N+](=O)[O-])cc1[N+](=O)[O-] [Zoalene],> 90 µM
4,"C(CCOCC1CO1)COCC1CO1 (centres unmarked) [1,4-Butanediol diglycidyl ether]",> 90 µM
5,CC(C)OCCO [2-Isopropoxyethanol],> 90 µM
6,"C1COCCO1 [1,4-Dioxane]",> 90 µM
7,COc1c2ccoc2cc2oc(=O)ccc12 [5-Methoxypsoralen],> 90 µM
8,O=c1oc2ccccc2c(O)c1Cc1c(O)c2ccccc2oc1=O [Dicumarol],> 20 µM
9,CN1CCCC1=O [N-Methyl-2-pyrrolidone],> 90 µM
10,CC(=O)Oc1cc(C)c(OC(C)=O)c2ccccc12 [Acetomenaphthone],19.7 µM
11,O=C(Oc1ccccc1C(=O)O)c1ccccc1O [Salsalate],> 50 µM
12,C=C(C)C(=O)OCCOCCOCCOC(=O)C(=C)C [Triethylene glycol dimethacrylate],> 90 µM
13,CCOCN(C(=O)CCl)c1c(C)cccc1CC [Acetochlor],> 90 µM
14,COCc1nnc(-c2ccc[n+]([O-])c2)n1-c1c(Cl)c(Cl)cc2[nH]c(=O)c(=O)[nH]c12 [UK-333747],> 90 µM
15,Oc1ccc(C2CNCCc3c2cc(O)c(O)c3Cl)cc1 (centres unmarked) [Fenoldopam],> 50 µM
16,O=C1OC(=O)c2c(Br)c(Br)c(Br)c(Br)c21 [Tetrabromophthalic anhydride],> 90 µM
17,FC(F)OC(Cl)C(F)(F)F (centres unmarked) [Isoflurane],> 90 µM
18,OC1CCC(C2CCCCC2)CC1 (centres unmarked) [4-Cyclohexylcyclohexanol],> 90 µM
19,COc1c2c(cc3c1OCO3)CCN(C)C2 [Hydrocotarnine hydrobromide],> 20 µM
20,"O=c1nn[nH]c2ccccc12 [1,2,3-Benzotriazin-4(1H)-one]",> 90 µM
21,ClC1=C(Cl)C1(Cl)Cl [Tetrachlorocyclopropene],> 90 µM

row,Structure (SMILES),CC50 at 24 h
1,CC(C(O)c1ccc(O)cc1)N1CCC(Cc2ccccc2)CC1 (centres unmarked) [Ifenprodil],19.6 µM
2,NC(=S)NS(=O)(=O)c1ccc(N)cc1 [Sulfathiourea],> 50 µM
3,CCCCCCOc1ccc(N)cc1 [4-Hexyloxyaniline],> 90 µM
4,"Clc1cccc(Cl)c1 [1,3-Dichlorobenzene]",> 90 µM
5,CCCCNC(=O)NS(=O)(=O)c1ccc(N)cc1 [Carbutamide],> 90 µM
6,NC(=O)NS(=O)(=O)c1ccc(N)cc1 [Sulfacarbamide],> 50 µM
7,OCC(S)CS (centres unmarked) [Dimercaprol],12.5 µM
8,CCCc1ccc(O)c(OC)c1 [2-Methoxy-4-propylphenol],> 90 µM
9,CN(N=O)c1ccc([N+](=O)[O-])cc1 [N-Nitroso-N-methyl-4-nitroaniline],> 90 µM
10,CC(=O)[C@H]1CC[C@H]2[C@@H]3C=CC4=CC(=O)CC[C@@]4(C)[C@@H]3CC[C@]12C [Dydrogesterone],> 20 µM
11,NC(=O)Nc1ccc(Cl)cc1 [4-Chlorophenylurea],> 90 µM
12,"O=C1c2ccccc2C(=O)N1CO [2-(Hydroxymethyl)-1H-Isoindole-1,3(2H)-dione]",> 90 µM
13,"C=CC(=O)NCNC(=O)C=C [N,N'-Methylenebisacrylamide]",> 90 µM
14,C=CC(=O)O [Acrylic acid],> 50 µM
15,CCCOC(OCCC)OCCC [Tripropyl orthoformate],> 90 µM
16,"Cc1ccc(N)cc1C [3,4-Dimethylaniline]",> 90 µM
17,CC(C)(C)c1csc(-c2cc3cc(OCc4ccccc4CC(=O)O)ccc3o2)n1 [FR150011],79.7 µM
18,COc1cc2c(cc1OC)[C@H]1CC(=O)[C@H](CC(C)C)CN1CC2 (racemic) [Tetrabenazine],> 50 µM
19,"CC(C)(O)C#CC(C)(C)O [2,5-Dimethyl-3-hexyne-2,5-diol]",> 90 µM
20,CC(=O)CC(C)(C)O [Diacetone alcohol],> 90 µM
21,CC/C=C(\C(=O)N[C@@H]1C(=O)N2C(C(=O)OCOC(=O)C(C)(C)C)=C(COC(N)=O)CS[C@H]12)c1csc(N)n1 [Cefcapene pivoxil hydrochloride],> 50 µM

row,Structure (SMILES),CC50 at 24 h
1,Brc1c(Br)c(Br)c(Br)c(Br)c1Br [Hexabromobenzene],> 5 µM
2,c1ccc2c(c1)c1cccc3ccc4cccc2c4c31 [Benzo(e)pyrene],> 90 µM
3,O=S1(=O)c2cccc3cccc(c23)N1CCCN1CCN(c2ccc(F)cc2)CC1 [Fananserin],> 50 µM
4,CC1(C)C2C(=O)CCC(C)(C)[C@]23CC[C@H]1C3 (some centres unmarked) [Isolongifolanone],> 90 µM
5,CN(C)[C@@H]1C(O)=C(C(=O)NCN2CCCC2)C(=O)[C@@]2(O)C(O)=C3C(=O)c4c(O)cccc4[C@@](C)(O)[C@H]3C[C@@H]12 [Rolitetracycline],> 20 µM
6,"Nc1ccc(C=Cc2ccc(N)cc2S(=O)(=O)O)c(S(=O)(=O)O)c1 [4,4'-Diamino-2,2'-stilbenedisulfonic acid]",> 50 µM
7,CNC(C)=O [N-Methylacetamide],> 90 µM
8,O=C(NOCC1CC1)c1ccc(F)c(F)c1Nc1ccc(I)cc1Cl [C.I. 1040],21.1 µM
9,C(=C\c1ccncc1)/c1ccccc1 [4-Styrylpyridine],> 50 µM
10,CC(C)N=C=NC(C)C [Diisopropylcarbodiimide],> 90 µM
11,CCC(C)(C)C(=O)OC1=C(c2ccc(Cl)cc2Cl)C(=O)OC12CCCCC2 [Spirodiclofen],> 90 µM
12,CC(C)(C)OC(=O)c1ccccc1C(=O)O [tert-Butyl hydrogen phthalate],> 90 µM
13,CC(C)C1(C)N=C(c2ncccc2C(=O)O)NC1=O (centres unmarked) [Imazapyr],> 90 µM
14,CCC1Nc2cc(Cl)c(S(N)(=O)=O)cc2S(=O)(=O)N1 (centres unmarked) [Ethiazide],> 50 µM
15,"c1ccc(SCCSc2ccccc2)cc1 [1,2-Bis(phenylthio)ethane]",> 90 µM
16,CCCCC(=O)O[C@]1(C(=O)CO)CC[C@H]2[C@@H]3CCC4=CC(=O)CC[C@]4(C)[C@H]3[C@@H](O)C[C@@]21C [Hydrocortisone valerate],> 50 µM
17,"Cc1cc(C)cc(C)c1 [1,3,5-Trimethylbenzene]",> 90 µM
18,CN1C(=O)CN=C(c2ccccc2)c2cc([N+](=O)[O-])ccc21 [Nimetazepam],> 50 µM
19,"Oc1nc2ccc(Cl)cc2o1 [6-Chloro-2,3-dihydrobenzoxazol-2-one]",> 90 µM
20,CCCC(=O)C(CC)Sc1ccoc1C (centres unmarked) [3-(2-Methyl-3-furylthio)-4-heptanone],> 90 µM
21,Cc1cccc(C)c1NC(=O)CN1CCN(CCCC(c2ccc(F)cc2)c2ccc(F)cc2)CC1 [Lidoflazine],11.6 µM

row,Structure (SMILES),CC50 at 24 h
1,"O=C(N=NC(=O)OCc1ccccc1)OCc1ccccc1 [Dibenzyl diazene-1,2-dicarboxylate]",> 90 µM
2,NC12CC3CC(CC(C3)C1)C2 [Amantadine],36.1 µM
3,CCCCCCOC(=O)CCCCC(=O)OCCCCCC [Dihexyl hexanedioate],> 90 µM
4,"Nc1cc(Cl)c(N)c(Cl)c1 [2,6-Dichloro-1,4-benzenediamine]",> 90 µM
5,CCOCC(=O)O [Ethoxyacetic acid],> 90 µM
6,CC(CN1c2ccccc2Sc2cccnc21)N(C)C (centres unmarked) [Isothipendyl hydrochloride],28 µM
7,Cc1cccc(C)c1NC(=O)C1CCCCN1C (centres unmarked) [Mepivicaine hydrochloride],> 50 µM
8,CCCCCCCCOC(C)=O [Octyl acetate],> 90 µM
9,O=CCCl [Chloroacetaldehyde],> 90 µM
10,CC(=O)OC1CCCCC1C(C)(C)C (centres unmarked) [2-tert-Butylcyclohexyl acetate],> 90 µM
11,O=S(=O)(c1ccccc1)c1ccc(Cl)cc1 [4-Chlorophenyl phenyl sulfone],> 90 µM
12,NC(=O)Cc1cccc2ccccc12 [1-Naphthaleneacetamide],> 90 µM
13,O=C(O)/C=C(\CC(=O)O)C(=O)O [trans-Aconitic acid],> 50 µM
14,CCOC(=O)[C@H](CCc1ccccc1)N[C@H]1CCCN2CCC[C@@H](C(=O)O)N2C1=O [Cilazapril],> 50 µM
15,CC(C)CCCCCCCOC(=O)c1ccccc1C(=O)OCCCCCCCC(C)C [Diisodecyl phthalate],> 90 µM
16,N=C(N)NCCCCCCC(=O)NC(O)C(=O)NCCCCNCCCN (centres unmarked) [Gusperimus trihydrochloride],> 50 µM
17,C=CC(=O)OCCOCCOC(=O)C=C [Diethylene glycol diacrylate],21.6 µM
18,O=C(Cl)c1ccc([N+](=O)[O-])cc1 [4-Nitrobenzoyl chloride],> 90 µM
19,Cc1ccccc1CO[C@@H]1C[C@@]2(C(C)C)CC[C@]1(C)O2 (racemic) [Cinmethylin],> 90 µM
20,COc1ccc([C@]2(C#N)CC[C@@H](C(=O)O)CC2)cc1OC1CCCC1 [Cilomilast],> 50 µM
21,CC(=O)Oc1ccc2c(c1)CC[C@@H]1[C@@H]2CC[C@]2(C)[C@@H](O)CC[C@@H]12 [Estradiol acetate],22.3 µM

# Same assay, conditions: rat, gh3-tre-luc cells, AC50 (uM) modified / 1000, Tox21_110001=Tox21_201173; viability, 1 nM T3 present, 24 h
row,Structure (SMILES),CC50 at 24 h
1,CCCCOC(=O)c1ccccc1N [Butyl anthranilate],> 90 µM

# Same assay, conditions: rat, gh3-tre-luc cells, AC50 (uM) modified / 1000, Tox21_110001=Tox21_201929; viability, 1 nM T3 present, 24 h
row,Structure (SMILES),CC50 at 24 h
1,CC(C)C#N [2-Methylpropanenitrile],> 90 µM

# Same assay, conditions: rat, gh3-tre-luc cells, AC50 (uM) modified / 1000, Tox21_110001=Tox21_300965; viability, 1 nM T3 present, 24 h
row,Structure (SMILES),CC50 at 24 h
1,CCOP(=S)(Oc1cnc(C(C)(C)C)nc1)OC(C)C (centres unmarked) [Tebupirimfos],52.3 µM

# Same assay, conditions: rat, gh3-tre-luc cells, AC50 (uM) modified / 1000, Tox21_110001=Tox21_301059; viability, 1 nM T3 present, 24 h
row,Structure (SMILES),CC50 at 24 h
1,CCOP(=O)(SC(C)CC)N1CCSC1=O (centres unmarked) [Fosthiazate],> 90 µM

# Same assay, conditions: rat, gh3-tre-luc cells, AC50 (uM) modified / 1000, Tox21_110001=Tox21_301664; viability, 1 nM T3 present, 24 h
row,Structure (SMILES),CC50 at 24 h
1,CSc1ccc(C(=O)C(C)(C)N2CCOCC2)cc1 [2-Methyl-4'-(methylthio)-2-morpholinopropiophenone],> 90 µM
